Experimental data taken from US9409866B2, “Pyridine-2-amides useful as CB2 agonists” (Hoffmann-La Roche Inc., priority 2012, dated 2016).
Where two headings read alike, the source gives them in different places.

Columns and labels:
[1] = target: human CB2 receptors (Homo sapiens (Human), UniProt P34972); test: functional cAMP assay, CHO cells expressing human CB2; format: cell-based
Procedure: (§1) CHO cells expressing human CB1 or CB2 receptors are seeded 17-24 hours prior to the experiment 50.000 cells per well in a black 96 well plate with flat clear bottom (Corning Costar #3904) in DMEM (Invitrogen No. 31331), 1×HT supplement, with 10% fetal calf serum and incubated at 5% CO2 and 37° C. in a humidified incubator. The growth medium was exchanged with Krebs Ringer Bicarbonate buffer with 1 mM IBMX and incubated at 30° C. for 30 min. Compounds were added to a final assay volume of 100 μl and incubated for 30 min at 30° C. Using the cAMP-Nano-TRF detection kit the assay (Roche Diagnostics) was stopped by the addition of 50 μl lysis reagent (Tris, NaCl, 1.5% Triton X100, 2.5% NP40, 10% NaN3) and 50 μl detection solutions (20 μM mAb Alexa700-cAMP 1:1, and 48 μM Ruthenium-2-AHA-cAMP) and shaken for 2 h at room temperature. The time-resolved energy transfer is measured by a TRF reader (Evotec Technologies GmbH), equipped with a ND:YAG laser as excitation source. The plate is measured twice with the excitation at 355 nm and at the emission with a delay of 100 ns and a gate of 100 ns, total exposure time 10 s at 730 (bandwidth 30 nm) or 645 nm (bandwidth 75 nm), respectively. The FRET signal is calculated as follows: FRET=T730-Alexa730-P(T645-B645) with P=Ru730-B730/Ru645-B645, where T730 is the test well measured at 730 nM, T645 is the test well measured at 645 nm, B730 and B645 are the buffer controls at 730 nm and 645 nm, respectively. cAMP content is determined from the function of a standard curve spanning from 10 μM to 0.13 nM cAMP.
(§2) EC50 values were determined using Activity Base analysis (ID Business Solution, Limited). The EC50 values for a wide range of cannabinoid agonists generated from this assay were in agreement with the values published in the scientific literature.

[2] = target: human CB1 receptors (Homo sapiens (Human), UniProt P21554); test: functional cAMP assay, CHO cells expressing human CB1; format: cell-based
Procedure: as §1, §2

[3] = Human CB1 EC50 (uM), functional cAMP assay, CHO cells expressing human CB1
[4] = functional cAMP assay, CHO cells expressing human CB1; read-out: Human CB1 EC50
[5] = read-out: Human CB1 EC50; functional cAMP assay, CHO cells expressing human CB1

Chain of human CB2 receptors (P34972 whole entry): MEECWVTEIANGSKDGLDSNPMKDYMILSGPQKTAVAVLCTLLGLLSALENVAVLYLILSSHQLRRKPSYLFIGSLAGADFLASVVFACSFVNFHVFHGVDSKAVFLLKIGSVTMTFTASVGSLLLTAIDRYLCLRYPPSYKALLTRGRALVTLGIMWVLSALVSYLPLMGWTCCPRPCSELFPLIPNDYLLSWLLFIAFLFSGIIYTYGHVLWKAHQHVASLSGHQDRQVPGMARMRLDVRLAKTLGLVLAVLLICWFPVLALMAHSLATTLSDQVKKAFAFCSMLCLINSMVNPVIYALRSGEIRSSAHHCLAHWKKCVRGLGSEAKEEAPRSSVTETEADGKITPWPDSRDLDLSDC
Chain of human CB1 receptors (P21554 whole entry): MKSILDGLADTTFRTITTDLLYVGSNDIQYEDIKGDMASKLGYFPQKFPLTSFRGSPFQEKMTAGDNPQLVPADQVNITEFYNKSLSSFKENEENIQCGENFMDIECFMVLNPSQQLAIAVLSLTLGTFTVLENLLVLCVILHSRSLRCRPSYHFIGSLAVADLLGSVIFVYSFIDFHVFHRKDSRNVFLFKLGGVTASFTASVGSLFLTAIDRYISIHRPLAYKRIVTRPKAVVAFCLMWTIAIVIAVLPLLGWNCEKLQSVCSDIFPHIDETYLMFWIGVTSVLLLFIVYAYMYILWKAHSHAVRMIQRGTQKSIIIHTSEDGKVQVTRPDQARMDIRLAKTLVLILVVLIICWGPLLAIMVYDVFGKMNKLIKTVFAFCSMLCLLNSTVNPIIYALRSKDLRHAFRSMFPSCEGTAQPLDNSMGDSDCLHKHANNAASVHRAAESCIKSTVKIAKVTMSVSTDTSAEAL

| SMILES | EC50 ([1]; Human CB2 EC50 (uM)) | EC50 [2, 3] | EC50 ([1]; read-out: Human CB2 EC50) | EC50 [2, 4] | EC50 [2, 5] |
| --- | --- | --- | --- | --- | --- |
| CC(CC(N)=O)(NC(=O)c1cc(OCC(F)(F)F)c(C2CC2)cn1)C1CC1 (single isomer, unassigned) [Example 243, N-[4-amino-2-cyclopropyl-4-oxobutan-2-yl]-5-cyclopropyl-4-(2,2,2-trifluoroethoxy)pyridine-2-carboxamide] | 0.0005 µM | > 10 µM |  |  |  |
| O=C(NC1(c2nccs2)COC1)c1cc(OCC2CC2)c(Cl)cn1 [Example 32, 5-Chloro-4-cyclopropylmethoxy-pyridine-2-carboxylic acid (3-thiazol-2-yl-oxetan-3-yl)-amide] |  |  | 0.0746 µM | > 10 µM |  |
| CNC(=O)C(NC(=O)c1cc(OCC(F)(F)F)c(C2CC2)cn1)C(C)(C)C (single isomer, unassigned) [Example 225, 5-cyclopropyl-N-[3,3-dimethyl-1-(methylamino)-1-oxobutan-2-yl]-4-(2,2,2-trifluoroethoxy)pyridine-2-carboxamide] | 0.0004 µM |  |  |  | > 10 µM |
| Cc1nc(C(C)(CS(C)(=O)=O)NC(=O)c2cc(OCC(F)(F)F)c(N3CC(F)(F)C3)cn2)no1 (centres unmarked) [Example 95, 5-(3,3-Difluoro-azetidin-1-yl)-4-(2,2,2-trifluoro-ethoxy)-pyridine-2-carboxylic acid [2-methanesulfonyl-1-methyl-1-(5-methyl-[1,2,4]oxadiazol-3-yl)-ethyl]-amide] |  |  | 0.0554 µM | > 10 µM |  |
| Cc1nc(C(C)(CC2CC2)NC(=O)c2cc(OCC(F)(F)F)c(C3CCC3)cn2)no1 (single isomer, unassigned) [Example 117, 5-cyclobutyl-N-[1-cyclopropyl-2-(5-methyl-1,2,4-oxadiazol-3-yl)propan-2-yl]-4-(2,2,2-trifluoroethoxy)pyridine-2-carboxamide] | 0.0024 µM |  |  |  | > 10 µM |
| CNC(=O)C(NC(=O)c1cc(O[C@@H](C)C(F)(F)F)c(C2CC2)cn1)C(C)(C)O (stereo partly drawn) [Example 238, 5-cyclopropyl-N-[3-hydroxy-3-methyl-1-(methylamino)-1-oxobutan-2-yl]-4-[(2S)-1,1,1-trifluoropropan-2-yl]oxypyridine-2-carboxamide] |  |  | 0.0274 µM | > 10 µM |  |
| Cc1nc([C@@](C)(CS(C)(=O)=O)NC(=O)c2cc(OCC(F)(F)F)c(C3CC3)cn2)no1 (single isomer, unassigned) [Example 98, 5-Cyclopropyl-4-(2,2,2-trifluoro-ethoxy)-pyridine-2-carboxylic acid [2-methanesulfonyl-1-methyl-1-(5-methyl-[1,2,4]oxadiazol-3-yl)-ethyl]-amide] | 0.0706 µM | > 10 µM |  |  |  |
| CC(CF)Oc1cc(C(=O)NC(C)(CC(N)=O)C2CC2)ncc1C1CC1 (single isomer, unassigned) [Example 303, N-(4-amino-2-cyclopropyl-4-oxobutan-2-yl)-5-cyclopropyl-4-(1-fluoropropan-2-yloxy)picolinamide] |  |  | 0.0485 µM | > 10 µM |  |
| Cc1nc(C(C)(NC(=O)c2cc(O[C@@H](C)C(F)(F)F)c(C3(F)COC3)cn2)C2CC2)no1 (stereo partly drawn) [Example 169, N-[1-cyclopropyl-1-(5-methyl-1,2,4-oxadiazol-3-yl)ethyl]-5-(3-fluorooxetan-3-yl)-4-[(2S)-1,1,1-trifluoropropan-2-yl]oxypyridine-2-carboxamide] |  |  | 0.0055 µM | > 10 µM |  |
| CC(C)(C)C(NC(=O)c1cc(OCC(F)(F)F)c(C2CC2)cn1)c1nn[nH]n1 (centres unmarked) [Example 162, 5-cyclopropyl-N-[2,2-dimethyl-1-(1H-tetrazol-5-yl)propyl]-4-(2,2,2-trifluoroethoxy)pyridine-2-carboxamide] |  |  | 0.0717 µM | > 10 µM |  |
| CC(C)(C)C(NC(=O)c1cc(OCC(F)(F)F)c(C2CC2)cn1)C(=O)N1CCC12COC2 (centres unmarked) [Example 198, 5-cyclopropyl-N-[3,3-dimethyl-1-(6-oxa-1-azaspiro[3.3]heptan-1-yl)-1-oxobutan-2-yl]-4-(2,2,2-trifluoroethoxy)pyridine-2-carboxamide] |  |  | 0.0364 µM | > 10 µM |  |
| O=C(NC1(c2ncco2)COC1)c1cc(OCC2CC2)c(Cl)cn1 [Example 36, 5-Chloro-4-cyclopropylmethoxy-pyridine-2-carboxylic acid (3-oxazol-2-yl-oxetan-3-yl)-amide] |  |  | 0.0517 µM | > 10 µM |  |
| CCN(C(=O)c1cc(OCC2CC2)c(C2CC2)cn1)C(C)(C)C [Example 106, 5-Cyclopropyl-4-cyclopropylmethoxy-pyridine-2-carboxylic acid tert-butyl-ethyl-amide] |  |  | 0.0095 µM | > 10 µM |  |
| CC(C)(CO)NC(=O)c1cc(-c2cccc(Cl)c2)c(Cl)cn1 [Example 2, 5-Chloro-4-(3-chlorophenyl)-pyridine-2-carboxylic acid (2-hydroxy-1,1-dimethyl-ethyl)-amide] |  |  | 0.0963 µM | > 10 µM |  |
| Cc1nc(C(C)(CC2CC2)NC(=O)c2cc(O[C@@H](C)C(F)(F)F)c(C3CCC3)cn2)no1 (stereo partly drawn) [Example 120, 5-cyclobutyl-N-[1-cyclopropyl-2-(5-methyl-1,2,4-oxadiazol-3-yl)propan-2-yl]-4-[(2S)-1,1,1-trifluoropropan-2-yl]oxypyridine-2-carboxamide] |  |  | 0.0008 µM | > 10 µM |  |
| Cc1nc(C(C)(CC2CC2)NC(=O)c2cc(OCCF)c(C3CC3)cn2)no1 (single isomer, unassigned) [Example 156, 5-cyclopropyl-N-[1-cyclopropyl-2-(5-methyl-1,2,4-oxadiazol-3-yl)propan-2-yl]-4-(2-fluoroethoxy)pyridine-2-carboxamide] | 0.0047 µM | > 10 µM |  |  |  |
| Cn1nnc(C(NC(=O)c2cc(OCC(F)(F)F)c(C3CC3)cn2)C(C)(C)C)n1 (single isomer, unassigned) [Example 209, 5-cyclopropyl-N-[2,2-dimethyl-1-(2-methyltetrazol-5-yl)propyl]-4-(2,2,2-trifluoroethoxy)pyridine-2-carboxamide] | 0.0048 µM | > 10 µM |  |  |  |
| Cc1nc(C(C)(NC(=O)c2cc(OCC(F)(F)F)c(N3CC(F)(F)C3)cn2)C2CC2)no1 (centres unmarked) [Example 78, 5-(3,3-Difluoro-azetidin-1-yl)-4-(2,2,2-trifluoro-ethoxy)-pyridine-2-carboxylic acid [1-cyclopropyl-1-(5-methyl-[1,2,4]oxadiazol-3-yl)-ethyl]-amide] |  |  | 0.0061 µM | > 10 µM |  |
| Cc1nc([C@](C)(NC(=O)c2cc(OCC(F)(F)F)c(Cl)cn2)C2CC2)no1 (single isomer, unassigned; enantiomer a) [Example 74, 5-Chloro-4-(2,2,2-trifluoro-ethoxy)-pyridine-2-carboxylic acid [1-cyclopropyl-1-(5-methyl-[1,2,4]oxadiazol-3-yl)-ethyl]-amide (enantiomer A)] | 0.0133 µM | > 10 µM |  |  |  |
| CC(C)(C)[C@H](CO)NC(=O)c1cc(OCC2CC2)c(Cl)cn1 [Example 29, 5-Chloro-4-cyclopropylmethoxy-pyridine-2-carboxylic acid ((R)-1-hydroxymethyl-2,2-dimethyl-propyl)-amide] |  |  | 0.0646 µM | > 10 µM |  |
| Cc1nnc(C(NC(=O)c2cc(OCC(F)(F)F)c(C3CC3)cn2)C(C)(C)C)o1 (centres unmarked) [Example 174, 5-cyclopropyl-N-[2,2-dimethyl-1-(5-methyl-1,3,4-oxadiazol-2-yl)propyl]-4-(2,2,2-trifluoroethoxy)pyridine-2-carboxamide] |  |  | 0.0218 µM | > 10 µM |  |
| Cc1nc(C(C)(CS(C)(=O)=O)NC(=O)c2cc(OC(C)CF)c(C3CC3)cn2)no1 (single isomer, unassigned) [Example 296, 5-cyclopropyl-4-(1-fluoropropan-2-yloxy)-N-(2-(5-methyl-1,2,4-oxadiazol-3-yl)-1-(methylsulfonyl)propan-2-yl)picolinamide] | 0.0422 µM |  |  |  | > 10 µM |
| CC(CC(N)=O)(NC(=O)c1cc(OCC(F)(F)F)c(C2CC2)cn1)C1CC1 (centres unmarked) [Example 230, N-(4-amino-2-cyclopropyl-4-oxobutan-2-yl)-5-cyclopropyl-4-(2,2,2-trifluoroethoxy)pyridine-2-carboxamide] |  |  | 0.0009 µM | > 10 µM |  |
| CCC[C@@](C)(CO)NC(=O)c1cc(OCC2CC2)c(Cl)cn1 [Example 37, (−)-5-Chloro-4-cyclopropylmethoxy-pyridine-2-carboxylic acid (1-hydroxymethyl-1-methyl-butyl)-amide] |  |  | 0.0167 µM | > 10 µM |  |
| Cc1nc(C(C)(NC(=O)c2cc(OCC(F)(F)F)c(C3(F)COC3)cn2)C2CC2)no1 (centres unmarked) [Example 139, N-[1-cyclopropyl-1-(5-methyl-1,2,4-oxadiazol-3-yl)ethyl]-5-(3-fluorooxetan-3-yl)-4-(2,2,2-trifluoroethoxy)pyridine-2-carboxamide] |  |  | 0.0006 µM | > 10 µM |  |
